From patent US20220062240A1, “METHODS OF TREATING CANCER USING A CLK INHIBITOR” (BioSplice Therapeutics, Inc., priority 2018, published 2022)
Read-outs that look alike come from different tables or passages of the source.

Columns and labels:
[1] = tested on: liver cancer (3 cell lines); assay: CellTiter-Glo Viability Assay, liver cancer; assay type: cell-based; conditions: Homo sapiens, inhibition of cancer cell proliferation
[2] = tested on: pancreatic cancer (8 cell lines); assay: CellTiter-Glo Viability Assay, pancreatic cancer; assay type: cell-based; conditions: Homo sapiens, inhibition of cancer cell proliferation
[3] = tested on: prostate cancer (5 cell lines); assay: CellTiter-Glo Viability Assay, prostate cancer; assay type: cell-based; conditions: Homo sapiens
[4] = tested on: ovarian cancer (4 cell lines); assay: CellTiter-Glo Viability Assay, ovarian cancer; assay type: cell-based; conditions: Homo sapiens, inhibition of cancer cell proliferation
DU4475 = assay: CellTiter-Glo Viability Assay, breast cancer; assay type: cell-based; conditions: Homo sapiens, DU-4475, 96 h; DU4475, breast cancer, four days; read-out: EC50
MCF7 = assay: CellTiter-Glo Viability Assay, breast cancer; assay type: cell-based; conditions: Homo sapiens, 96 h; MCF7, breast cancer, four days; read-out: EC50
HCC1599 = assay: CellTiter-Glo Viability Assay, breast cancer; assay type: cell-based; conditions: Homo sapiens, 96 h; HCC1599, breast cancer, four days; read-out: EC50
CAMA1 = assay: CellTiter-Glo Viability Assay, breast cancer; assay type: cell-based; conditions: Homo sapiens, CAMA-1, 96 h; CAMA1, breast cancer, four days; read-out: EC50
ZR-75-1 = assay: CellTiter-Glo Viability Assay, breast cancer; assay type: cell-based; conditions: Homo sapiens, 96 h; ZR-75-1, breast cancer, four days; read-out: EC50
T47D = assay: CellTiter-Glo Viability Assay, breast cancer; assay type: cell-based; conditions: Homo sapiens, 96 h, breast cancer, four days, read-out: EC50
BT-549 = assay: CellTiter-Glo Viability Assay, breast cancer; assay type: cell-based; conditions: Homo sapiens, 96 h; BT-549, breast cancer, four days; read-out: EC50
MDA-MB-231-Luc = assay: CellTiter-Glo Viability Assay, breast cancer; assay type: cell-based; conditions: Homo sapiens, 96 h; MDA-MB-231-Luc, breast cancer, four days; read-out: EC50
[5] = tested on: lung cancer (4 cell lines); assay: CellTiter-Glo Viability Assay, lung cancer; assay type: cell-based; conditions: Homo sapiens, inhibition of cancer cell proliferation
[6] = tested on: colorectal cancer (6 cell lines); assay: CellTiter-Glo Viability Assay, colorectal cancer; assay type: cell-based; conditions: Homo sapiens, inhibition of cancer cell proliferation
CLK2 = target: T1, CLK2 (Homo sapiens, UniProt P49760); assay: CLK2 kinase activity assay (Z-lyte, Ser/Thr 6 peptide); assay type: biochemical; conditions: recombinant CLK2 kinase, ATP 60 μM; read-out: EC50
T1 construct: purchased Thermo Fisher (Life Technologies), Z'-LYTE Kinase Assay Kits
Experimental: All reactions were performed in duplicate.

all 50 cell lines = assay: CellTiter-Glo Viability Assay, average across all cell lines; assay type: cell-based; conditions: Homo sapiens; across all 50 cell lines; read-out: average EC50 for inhibition of cancer cell proliferation
Summary of the method: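 4-day proliferation, 37° C/5% CO2; 300-3,000 cells/well; compound in duplicate vs DMSO controls. Panel: breast, colorectal, heme/lymphoid, liver, lung, ovarian, pancreatic, prostate lines. Read-out: CellTiter-Glo ATP luminescence, EC50 from dose-response.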

[7] = tested on: haematopoietic & lymphoid tumors (13 cell lines); assay: CellTiter-Glo Viability Assay, haematopoietic & lymphoid tumors; assay type: cell-based; conditions: Homo sapiens, inhibition of cancer cell proliferation

T1 sequence (P49760 whole entry): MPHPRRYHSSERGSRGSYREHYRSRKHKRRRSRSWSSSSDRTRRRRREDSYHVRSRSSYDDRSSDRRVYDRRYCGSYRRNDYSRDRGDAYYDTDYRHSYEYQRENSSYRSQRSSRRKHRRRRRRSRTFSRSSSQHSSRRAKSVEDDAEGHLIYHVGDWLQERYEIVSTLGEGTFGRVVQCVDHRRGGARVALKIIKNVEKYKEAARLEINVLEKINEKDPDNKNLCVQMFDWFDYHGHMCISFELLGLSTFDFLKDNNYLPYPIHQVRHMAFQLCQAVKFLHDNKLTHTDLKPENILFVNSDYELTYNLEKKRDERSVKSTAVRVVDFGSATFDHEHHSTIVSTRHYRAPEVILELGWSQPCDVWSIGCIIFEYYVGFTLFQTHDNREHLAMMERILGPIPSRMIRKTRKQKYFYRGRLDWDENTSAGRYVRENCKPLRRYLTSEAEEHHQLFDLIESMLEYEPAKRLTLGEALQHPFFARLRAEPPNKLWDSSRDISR

EC50 ([1]; SNU-398, SNU398 cell line, read-out: Liver cancer, EC50 SNU398): 0.12 µM
EC50 ([1]; HEPG2 cell line, read-out: Liver cancer, EC50 HEPG2): 0.654 µM
EC50 ([1]; PLC/PRF/5 cell line, read-out: Liver cancer, EC50 PLC/PRF/5): 2.55 µM
EC50 ([2]; BXPC-3, BxPC3 cell line, read-out: Pancreatic cancer, EC50 BxPC3): 2.07 µM
EC50 ([2]; CAPAN-1, Capan1 cell line, read-out: Pancreatic cancer, EC50 Capan1): 0.81 µM
EC50 ([2]; Capan-2, Capan2 cell line, read-out: Pancreatic cancer, EC50 Capan2): 1.19 µM
EC50 ([2]; MIA PaCa-2 cell line, read-out: Pancreatic cancer, EC50 MIA PaCa-2): 0.219 µM
EC50 ([2]; PANC 05.04 cell line, read-out: Pancreatic cancer, EC50 PANC 05.04): 1.06 µM
EC50 ([2]; PANC-1 cell line, read-out: Pancreatic cancer, EC50 PANC-1): 1.66 µM
EC50 ([2]; UPAFII cell line, read-out: Pancreatic cancer, EC50 UPAFII): 0.635 µM
EC50 ([3]; DU-145, read-out: Prostate cancer EC50 Du-145): 0.941 µM
EC50 ([3]; PC-3, PC3 cell line, inhibition of cancer cell proliferation, read-out: Prostate cancer EC50 PC3): 0.546 µM
EC50 ([3]; 22Rv1 cell line, inhibition of cancer cell proliferation, read-out: Prostate cancer EC50 22Rv1): 0.397 µM
EC50 ([3]; LNCap clone FGC cell line, inhibition of cancer cell proliferation, read-out: Prostate cancer EC50 LNCap clone FGC): 1.38 µM
EC50 ([3]; VCaP (Sigma) cell line, inhibition of cancer cell proliferation, read-out: Prostate cancer EC50 VCaP (Sigma)): 1.7 µM
EC50 ([4]; PA-1, PA1 cell line, read-out: Ovarian cancer, EC50 (μM) PA1): 0.725 µM
EC50 ([4]; TOV112D, TOV-112D cell line, read-out: Ovarian cancer, EC50 (μM) TOV-112D): 0.277 µM
EC50 ([4]; OV-90 cell line, read-out: Ovarian cancer, EC50 (μM) OV-90): 1.07 µM
EC50 ([4]; OVCAR-3 cell line, read-out: Ovarian cancer, EC50 (μM) OVCAR-3): 0.194 µM
EC50 (DU4475): 0.468 µM
EC50 (MCF7): 3.36 µM
EC50 (HCC1599): 0.673 µM
EC50 (CAMA1): 0.64 µM
EC50 (ZR-75-1): 0.95 µM
EC50 (T47D): 1.22 µM
EC50 (BT-549): 1.05 µM
EC50 (MDA-MB-231-Luc): 0.798 µM
EC50 ([5]; A-427, A427 cell line, read-out: Lung cancer, EC50 (μM) A427): 0.481 µM
EC50 ([5]; HCC78, HCC-78 cell line, read-out: Lung cancer, EC50 (μM) HCC-78): 1.07 µM
EC50 ([5]; NCI-H460 cell line, read-out: Lung cancer, EC50 (μM) NCI-H460): 2.05 µM
EC50 ([5]; NCI-H522 cell line, read-out: Lung cancer, EC50 (μM) NCI-H522): 0.246 µM
EC50 ([6]; HCT-116, HCT116 cell line, read-out: Colorectal cancer, EC50 (μM) HCT116): 0.455 µM
EC50 ([6]; HT-29, HT29 cell line, read-out: Colorectal cancer, EC50 (μM) HT29): 1.41 µM
EC50 ([6]; SW-620, SW620 cell line, read-out: Colorectal cancer, EC50 (μM) SW620): 0.241 µM
EC50 ([6]; DLD-1 cell line, read-out: Colorectal cancer, EC50 (μM) DLD-1): 1.53 µM
EC50 ([6]; SW48 cell line, read-out: Colorectal cancer, EC50 (μM) SW48): 0.16 µM
EC50 ([6]; SW480 cell line, read-out: Colorectal cancer, EC50 (μM) SW480): 0.384 µM
EC50 (CLK2): 0.0026 µM
EC50 ([7]; DND41, DND-41 cell line, read-out: Haematopoietic & Lymphoid tumors, EC50 (μM) DND-41): 0.547 µM
EC50 ([7]; MV4-11, MV-4-11 cell line, read-out: Haematopoietic & Lymphoid tumors, EC50 (μM) MV-4-11): 0.123 µM
EC50 ([7]; Rec1, REC-1 cell line, read-out: Haematopoietic & Lymphoid tumors, EC50 (μM) REC-1): 1.77 µM
EC50 ([7]; SU-DHL-4, SUDHL4 cell line, read-out: Haematopoietic & Lymphoid tumors, EC50 (μM) SUDHL4): 0.533 µM
EC50 ([7]; HL-60 cell line, read-out: Haematopoietic & Lymphoid tumors, EC50 (μM) HL-60): 1.63 µM
EC50 ([7]; JM1 cell line, read-out: Haematopoietic & Lymphoid tumors, EC50 (μM) JM1): 0.167 µM
EC50 ([7]; JURKAT, Clone E6-1 cell line, read-out: Haematopoietic & Lymphoid tumors, EC50 (μM) JURKAT, Clone E6-1): 1.33 µM
EC50 ([7]; JeKo-1 cell line, read-out: Haematopoietic & Lymphoid tumors, EC50 (μM) JeKo-1): 0.142 µM
EC50 ([7]; KASUMI-1 cell line, read-out: Haematopoietic & Lymphoid tumors, EC50 (μM) KASUMI-1): 0.547 µM
EC50 ([7]; Loucy cell line, read-out: Haematopoietic & Lymphoid tumors, EC50 (μM) Loucy): 0.385 µM
EC50 ([7]; MOLT-4 cell line, read-out: Haematopoietic & Lymphoid tumors, EC50 (μM) MOLT-4): 0.734 µM
EC50 ([7]; TF-1 cell line, read-out: Haematopoietic & Lymphoid tumors, EC50 (μM) TF-1): 2.39 µM
EC50 ([7]; TOLEDO cell line, read-out: Haematopoietic & Lymphoid tumors, EC50 (μM) TOLEDO): 0.373 µM
SMILES: CN1CCC2(CC1)CN(c1cc(C(=O)Nc3cc4cc(-c5cnn(C)c5CO)ccc4cn3)ccn1)C2 [Compound 76]
EC50 (all 50 cell lines): 0.922 µM
